Values quoted from earlier work in patent EP0580641B1, “NEW THALIDOMIDE DERIVATIVES, METHOD OF MANUFACTURE AND USE THEREOF IN MEDICAMENTS” (Grünenthal GmbH, priority 1991, dated 1992).

Details: cited from Arch. Pharm. 321, 371 (1988)

Wasserlöslichkeit: 0,012 mg/ml
SMILES: O=C1CCC(N2C(=O)c3ccccc3C2=O)C(=O)N1 (stereo not shown) [Thalidomid, 3-Phthalimido-piperidin-2,6-dion]
